According to patent EP4656642A1, “ESTROGEN RECEPTOR PROTEOLYSIS TARGETING CHIMERA COMPOUND AND USE THEREOF” (GAN & LEE PHARM CO., LTD, priority 2023, dated 2024):
Changes are numbered by the printed parent chain. pIC50: −log10 of the molar value.

Tests used:
Type in all cases: cell-based
[1] = target: T1, AR protein (Homo sapiens, UniProt P10275); settings: 8 h
T1 construct: host or cells: VCaP
T1 sequence (P10275 1-920): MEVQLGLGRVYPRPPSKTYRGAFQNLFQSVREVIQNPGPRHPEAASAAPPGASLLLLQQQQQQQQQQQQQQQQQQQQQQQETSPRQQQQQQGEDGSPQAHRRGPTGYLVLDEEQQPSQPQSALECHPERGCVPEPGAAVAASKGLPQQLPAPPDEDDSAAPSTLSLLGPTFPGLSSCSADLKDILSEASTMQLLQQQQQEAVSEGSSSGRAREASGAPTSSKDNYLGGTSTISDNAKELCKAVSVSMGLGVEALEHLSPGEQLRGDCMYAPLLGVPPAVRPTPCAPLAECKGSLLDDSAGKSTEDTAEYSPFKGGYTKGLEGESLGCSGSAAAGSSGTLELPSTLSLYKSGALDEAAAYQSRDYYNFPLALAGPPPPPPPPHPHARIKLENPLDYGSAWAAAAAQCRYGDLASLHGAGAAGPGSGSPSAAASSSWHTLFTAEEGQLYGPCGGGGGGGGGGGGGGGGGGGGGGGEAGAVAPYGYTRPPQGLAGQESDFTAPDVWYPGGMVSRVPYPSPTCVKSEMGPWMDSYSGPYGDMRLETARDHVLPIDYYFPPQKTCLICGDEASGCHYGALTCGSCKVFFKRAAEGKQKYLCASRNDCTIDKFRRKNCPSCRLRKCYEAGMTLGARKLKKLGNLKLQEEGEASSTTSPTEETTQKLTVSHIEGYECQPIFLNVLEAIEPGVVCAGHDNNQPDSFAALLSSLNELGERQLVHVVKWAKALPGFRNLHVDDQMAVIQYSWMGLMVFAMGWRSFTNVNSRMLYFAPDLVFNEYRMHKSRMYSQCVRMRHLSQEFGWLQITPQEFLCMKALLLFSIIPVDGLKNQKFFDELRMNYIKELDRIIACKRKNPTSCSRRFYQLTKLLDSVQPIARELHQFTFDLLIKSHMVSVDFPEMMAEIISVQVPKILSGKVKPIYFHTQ
Description: Test Example 9 Degradation activity of the compounds disclosed in the present disclosure against AR protein in VCAP cells (cell source: ATCC)
AR-positive human prostate cancer cells, VCaP, were inoculated in six-well microplates (Thermo Catalog No. 140675) in DMEM (GiBco Catalog No. 11995-065) containing 10% FBS (Hyclone Catalog No. SH30406.05) at a density of 3 × 10^5 cells/well. […] After 8 h, the culture medium was discarded, and cells were washed with PBS, then RIPA lysis buffer containing 1% Protease Inhibitor Cocktail was added, and the total protein extract was obtained after lysis and centrifugation, and the protein concentration in the extract was detected by BCA method. Protein electrophoresis was carried out by SDS-PAGE, after which the protein was transferred to PVDF (Millipore Sigma catalog number PSRP010R5) membrane by 100V constant-voltage electrotransfer for 60 min, and the PVDF membrane was placed in 1×TBST solution with 5% milk and blocked at room temperature for 1 h. The primary antibody solution (Anti-Androgen receptor, Cell Signaling Technology Catalog No. 5153S; 1: 2000 dilution) was prepared and incubated overnight at 4°C. The primary antibody solution was discarded, and the PVDF membrane was washed three times with 1× TBST for 5 min each. The secondary antibody solution (Thermo catalog number SA5-35571; 1:7500 dilution) was prepared, and the secondary antibody dilution was incubated at room temperature for 1h. The secondary antibody solution was discarded, and the PVDF membrane was washed three times with 1×TBST for 5 min each. Western membrane imaging was performed using a dual-color infrared laser imaging system (Licor catalog number Odyssey CLX). Bands were analyzed in grayscale using the software Image Studio. For each sample, GAPDH protein bands were detected as internal reference. The degradation rates of the AR protein for the compounds and positive control sample were calculated based on the grayscale of the protein bands.

[2] = target: T2, AR protein (Homo sapiens, UniProt P10275, T878A); experiment: Degradation of AR protein in LNCAP cells (Western blot, 8 h); settings: LNCaP FGC cells
T2 construct: host or cells: LNCaP FGC
T2 sequence (P10275 1-920 T878A): T1 sequence (P10275 1-920) with T878A
Description: After 8 h, the culture medium was discarded, and the cells were washed with PBS. After the cells were washed with PBS, RIPA lysis buffer containing 1% Protease Inhibitor Cocktail was added, and the total protein extract was obtained after lysis and centrifugation, and the protein concentration in the extract was detected by BCA method. Protein electrophoresis was carried out by SDS-PAGE, after which the proteins were transferred to PVDF (Millipore Sigma Catalog No. PSRP010R5) membrane by 100V constant voltage electrotransfer for 60 min, and the PVDF membrane was placed in 1×TBST solution with 5% milk and blocked at room temperature for 1h. […] The primary antibody solution was discarded, and the PVDF membrane was washed three times with 1× TBST for 5 min each. […] The secondary antibody solution was discarded, and the PVDF membrane was washed three times with 1× TBST for 5 min each. Western membrane imaging was performed using a dual-color infrared laser imaging system (Licor catalog number Odyssey CLX). Bands were analyzed in grayscale using the software Image Studio. For each sample, GAPDH protein bands were detected as internal reference. The degradation rates of the AR protein for the compounds and positive control sample were calculated based on the grayscale of the protein bands.

[3] = tested on: LNCAP FGC cells; experiment: Inhibition of LNCAP cell proliferation (WST-8, 96 hours); settings: LNCAP FGC cells, 96 hours, WST-8
Description: Test Example 8 Inhibitory activity of the compounds disclosed in the present disclosure on LNCAP cell proliferation
LNCAP FGC cells (ATCC, CLR-1740) were cultured in RPMI 1640 (ATCC, 30-2001) complete medium containing 10% fetal bovine serum (Hyclone, SH30406.05). On the first day of the experiment, LNCaP FGC cells were inoculated in 96-well plates at a density of 5,000 cells/well using RPMI 1640 medium containing 10% fetal bovine serum, with 100µL of cell suspension per well, and placed in a cell culture incubator with 5% CO2 at 37°C overnight. […] The compound concentrations were prepared in complete […] medium and serially diluted 5-fold starting from 10 µM, resulting in a total of nine concentration points. Wells receiving 100 µL of RPMI 1640 medium containing 10% FBS only were used as controls. The plates were incubated at 37°C in a 5% CO2 incubator for 96 hours.

[4] = tested on: MCF-7 cells; experiment: Inhibition of cell proliferation of MCF-7 cells (CCK-8, 9 days); settings: Homo sapiens, MCF7, 216 h, 9 days of treatment, CCK-8, Table 5
Procedure, shortened: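 MCF-7 cells seeded at 800 cells/well in DMEM with 10% FBS, exposed to a range of compound concentrations for 9 days at 37°C, 5% CO2. Viability read by CCK-8; IC50 derived for proliferation inhibition.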

[5] = tested on: MCF-7 cells; experiment: Inhibition of cell proliferation of MCF-7 cells (CCK-8, 6 days); settings: Homo sapiens, MCF7, 144 h, 6 days of treatment, Table 4
From the text: Test Example 3 Inhibitory effect of the PROTAC compounds provided in the present disclosure on cell proliferation of MCF-7 cells
The complete medium required for MCF-7 cells (source ATCC) was DMEM (gibco, Product number :11995-065) basal medium containing 10% fetal bovine serum. MCF-7 cells were inoculated in 96-well plates at a density of 800 cells/well, and different concentrations of the PROTAC compounds 1-55 provided in the examples of the present disclosure and a positive control sample ARV-471 (source: Innochem) were prepared to treat the cells, and the cells were treated at 37°C in a cell culture incubator with 5% CO2 for 6 days. Cell viability was detected using a CCK-8 kit (Beyotime, Product number: C0040) according to the manufacturer's instructions. The IC50 values of each PROTAC compound after 6 days of treatment were calculated using GraphPadPrism software based on the inhibition rate, and the results are shown in Table 4. Table 4 IC50 values for inhibition of the proliferation of MCF-7 cells by the PROTAC compounds of the present disclosure and positive control sample

[6] = target: T3, ERα (Homo sapiens, UniProt P03372); experiment: Degradation of ERα in MCF-7 cells (immunoblotting, 4 h)
T3 sequence (P03372 1-595): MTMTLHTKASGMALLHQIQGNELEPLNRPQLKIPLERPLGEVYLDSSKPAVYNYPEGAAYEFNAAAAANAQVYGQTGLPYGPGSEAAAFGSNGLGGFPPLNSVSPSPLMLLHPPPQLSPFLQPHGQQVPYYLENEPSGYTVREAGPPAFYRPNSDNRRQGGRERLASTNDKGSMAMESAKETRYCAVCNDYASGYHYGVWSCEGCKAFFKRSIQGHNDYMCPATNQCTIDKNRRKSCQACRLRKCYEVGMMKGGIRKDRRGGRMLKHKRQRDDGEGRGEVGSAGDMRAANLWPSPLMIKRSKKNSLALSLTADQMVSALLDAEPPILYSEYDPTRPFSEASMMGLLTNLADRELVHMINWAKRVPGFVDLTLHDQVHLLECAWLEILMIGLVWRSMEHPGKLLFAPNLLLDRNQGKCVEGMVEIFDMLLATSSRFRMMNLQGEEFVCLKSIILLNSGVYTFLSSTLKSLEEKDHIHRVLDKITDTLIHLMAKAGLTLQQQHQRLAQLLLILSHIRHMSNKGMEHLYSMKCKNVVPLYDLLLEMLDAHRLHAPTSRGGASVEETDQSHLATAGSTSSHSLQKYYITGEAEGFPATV
Procedure, shortened: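 MCF-7 cells treated 4 h at 37°C with compounds at 0.15-1000nM final. ERα in lysates measured by immunoblot, with band grayscale normalized to an internal reference protein. Degradation rate calculated against DMSO-treated control.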

[7] = tested on: T-47D cells; experiment: Inhibition of cell proliferation in T-47D cells (CCK-8, 6 days); settings: Homo sapiens, T47D, 144 h, 6 days of treatment, Table 2
Procedure, shortened: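 T-47D cells at 3,000 cells/well in RPMI 1640 with 10% FBS were exposed to a concentration series of PROTAC compounds for 6 days at 37 °C, 5% CO2. Viability was read by CCK-8, and IC50 values were derived for proliferation inhibition.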

[8] = target: T3, ERα; experiment: Degradation of ERα in T-47D cells (immunoblotting, 4 h); design: host or cells: T-47D
Procedure, shortened: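 T-47D cells were treated with compound (final 0.15-1000 nM, DMSO) for 4 h at 37°C, 5% CO2. Cells were lysed in RIPA buffer with protease inhibitor, and ERα protein in the cleared lysate was measured by immunoblotting.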

pIC50 [4] | pIC50 [5] | Degradation rate (%) of ERα in MCF-7 cells ([6]; 1nM compound) [%] | Degradation rate (%) of ERα in MCF-7 cells ([6]; 10nM compound) [%] | pIC50 [7] | Degradation rate (%) of ERα in T-47D cells ([8]; 1nM compound) [%] | Degradation rate (%) of ERα in T-47D cells ([8]; 10nM compound) [%] | Compound | Degradation rates of the AR protein in VCAP cells, 0.5 nM [1] [%] | Degradation rates of the AR protein in VCAP cells, 5 nM [1] [%] | Degradation rates of the AR protein in LNCAP cells, 10 nM (%) [2] [%] | Degradation rates of the AR protein in LNCAP cells, 100 nM (%) [2] [%] | pIC50 [3]
 |  |  |  |  |  |  | N#Cc1ccc(O[C@H]2CC[C@H](NC(=O)c3ccc(N4CCC(CN5CCC6(CC5)COc5c6ccc6c5C(=O)N(C5CCC(=O)NC5=O)C6)CC4)nn3)CC2)cc1Cl (relative stereo) [2-313] | 78 | 89 | 75 | 79 | 4.46
 |  |  |  |  |  |  | COc1cc(O[C@H]2CC[C@H](NC(=O)c3ccc(N4CCC(CN5CCC6(CC5)COc5c6ccc6c5C(=O)N(C5CCC(=O)NC5=O)C6)CC4)nn3)CC2)ccc1C#N (relative stereo) [2-314] | 86 | 91 | 69 | 76 | 4.37
7.15 | 4.75 | 38 | 76 | 8.77 | 61 | 85 | O=C1CC[C@H](N2Cc3cc(N4CCN(CC5CCN(c6ccc([C@@H]7c8ccc(O)cc8CC[C@@H]7c7ccccc7)cc6)CC5)CC4)ccc3C2=O)C(=O)N1 [ARV-471, reference compound] |  |  |  |  | 
